Laboratory results published in US20260115336A1, “MOFS WITH BETA-EMITTERS FOR RADIOTHERAPY” (Node Pharma AS, priority 2023, published 2026).

Key:
[1] = Retention of Lu177 in the MOF in serum, iTLC; format: in vitro ADME; conditions: fetal bovine serum, after 30 minutes
Method: (§1) Radiolabelling was performed by adding 60 kBq of [^177Lu]LuCl3 solution to a 400 μL suspension of UiO-66-(COOH)2 (0.6 mg) in 0.005 mol/L MES buffer (pH 6). A control sample consisting of 60 kBq [^177Lu]LuCl3 in 0.005 mol/L MES buffer was prepared in parallel. The samples were kept at 37° C., under agitation for 24 hours. 35 μL of each sample was dispersed in 400 μL of fetal bovine serum. After 30 minutes, both the radiolabelled-dose and the serum-dose suspensions were subjected to instant thin layer chromatography (iTLC) under the following conditions: 5 μL drops were placed on glass fiber iTLC strips, which were then placed in a TLC chamber with 20 mM sodium citrate (pH 6.5) as mobile phase. Upon completion, the application point and the top of the iTLC strip were measured separately using a Hidex gamma counter.

[2] = Lu177 radiolabelling (adsorption) of the MOF, iTLC; format: physicochemical; conditions: 60 kBq [177Lu]LuCl3, 0.005 mol/L MES buffer pH 6, 37° C., 24 hours
Method: as §1

Serum retention (retention of Lu in serum) [1]: 3%
Labelling, RCP (radiochemical purity) [2]: 1%
SMILES: [Cl][Lu]([Cl])[Cl] [LuCl3, [^177Lu]LuCl3]
